Data from PubChem BioAssay (NCI).
Several values for one entry are separate records, joined by “and”; a condition that tells them apart may be missing. Equal entries are not always repeated.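 Growth conditions: 96-well plates. Treatment: test compound, 48 hours, 5 concentrations. Analysis: linear interpolation between bracketing concentrations; unreached endpoints set to highest concentration. Abbreviation: GI50, concentration required for 50% inhibition of growth. TGI marks complete inhibition of growth.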

Assays:
Experiment in all cases: inhibition of tumour cell growth, NCI panel, 48 h
HCT-116 colon = system: HCT-116 colon
HOP-62 NSCLC = system: HOP-62 NSCLC
KM12 colon = system: KM12 colon
LOX IMVI melanoma = system: LOX IMVI melanoma
RXF 393 renal = system: RXF 393 renal
SF-268 CNS = system: SF-268 CNS
SW-620 colon = system: SW-620 colon
U251 CNS = system: U251 CNS
UACC-257 melanoma = system: UACC-257 melanoma
MDA-MB-435 = system: MDA-MB-435

Structure (SMILES) | TGI (HCT-116 colon) [µM] | TGI (HOP-62 NSCLC) [µM] | TGI (KM12 colon) [µM] | TGI (LOX IMVI melanoma) [µM] | TGI (RXF 393 renal) | TGI (SF-268 CNS) [µM] | TGI (SW-620 colon) [µM] | TGI (U251 CNS) [µM] | TGI (UACC-257 melanoma) [µM] | GI50 (HCT-116 colon) [µM] | GI50 (HOP-62 NSCLC) [µM] | GI50 (KM12 colon) [µM] | GI50 (LOX IMVI melanoma) [µM] | GI50 (MDA-MB-435) [µM] | TGI (MDA-MB-435) [µM] | GI50 (SF-268 CNS) [µM] | GI50 (SW-620 colon) [µM] | GI50 (U251 CNS) [µM] | GI50 (UACC-257 melanoma) [µM] | GI50 (RXF 393 renal) [µM]
CC(C)(C)c1cc(C(=O)O)c(C(c2ccccc2)c2ccccc2C(=O)O)c(C(=O)O)c1 (stereo not given) | > 100 | > 100 | > 100 | > 100 | > 100 µM | > 100 | > 100 | 25.4 | > 100 | – | – | – | – | – | – | – | – | – | – | –
COc1cc(/C=C2\C(=O)Nc3ccc(Br)cc32)cc(OC)c1OC | > 100 | 81.4 | > 92.4 | > 100 | – | > 100 | > 100 | 30 | > 100 | 4.86 | 20.3 | 3.33 | 10.6 | 2.02 | 7.19 | 36.9 | 3.74 | 7.19 | > 50.7 | –
CCn1c(-c2nonc2N)nc2c(C#CC(C)(C)O)ncc(OC[C@@H]3CCCN3)c21 | 20.2 | 24.9 | 18.5 | > 19.4 | 3.18 µM | > 25 | > 25 | > 22 | > 25 | 5.34 | 7.07 | 2.61 | 5.5 | 11.6 | > 25 | 7.84 | 6.84 | 3.03 | > 25 | 0.189
CCCCOP1(=O)C=CC(Cl)=C(C)C1 (stereo not given) | 46.9 | > 100 | 46.6 | – | – | 89.2 | 42.7 | – | – | – | – | – | – | – | – | – | – | – | – | –
O=C1Cc2ccccc2CCc2ccccc21 | > 100 | > 100 | > 100 | > 100 | > 100 µM | > 100 | > 100 | > 100 | > 100 | – | – | – | – | – | – | – | – | – | – | –
NC(=O)c1ncn(C2OC(CO)C(O)C2O)c1NC(=S)NC(=O)c1ccccc1 (stereo not given) | > 100 | > 100 | > 100 | > 100 | > 100 µM | > 100 | > 100 | > 100 | > 100 | – | – | – | – | – | – | – | – | – | – | –
O=c1ncccn1C1OC(CO)C(O)C1F (stereo not given) | > 100 | > 100 | > 100 | > 100 | > 100 µM | > 100 | > 100 | > 100 | > 100 | > 100 | – | > 100 | – | – | – | – | > 100 | – | – | –
CN1C(=O)CC2(C)c3cc(C=O)ccc3N(C)C12 (stereo not given) | > 100 | > 100 | > 100 | > 100 | > 100 µM | > 100 | > 100 | > 100 | > 100 | – | – | – | – | – | – | – | – | – | – | –
Cc1cc(N(CCC#N)CCC#N)ccc1/C=C/C(=O)Nc1ccccc1Cl | > 100 | > 100 | > 100 | > 100 | – | > 100 | > 100 | > 100 | > 100 | – | – | – | – | – | – | – | – | – | – | –
CC1(C)Oc2ccccc2N2O[C@@H]3C(=O)N(c4ccccc4)C(=O)[C@@H]3C21c1ccccc1 (stereo not given in full) | 59.7 | 31.5 | > 100 | – | 60.8 µM | > 100 | > 100 | 69.1 | 78.7 | – | – | – | – | – | – | – | – | – | – | –
Nc1nc(Cl)cc(NCCCCCCNc2cc(Cl)nc(N)n2)n1 | > 100 | > 100 | > 100 | > 100 | > 100 µM | – | > 100 | > 100 | > 100 | – | – | – | – | – | – | – | – | – | – | –
CCC1(Cl)C(=O)NC(=O)N(C2CC(O)C(CO)O2)C1N=[N+]=[N-] (stereo not given) | – | > 100 | – | > 100 | > 100 µM | > 100 | > 100 | > 100 | > 100 | – | – | – | – | – | – | – | – | – | – | –
C=CCN(N=O)C(=O)ON1C(=O)CCC1=O | > 100 | > 100 | > 100 | > 100 | > 100 µM | > 100 | > 100 | > 100 | > 100 | – | – | – | – | – | – | – | – | – | – | –
O=C(/C(=N/Nc1cn[nH]c(=O)c1Cl)c1ccccc1)c1ccccc1 | 99.1 | > 100 | 32.9 | 66.9 | 47.3 µM | – | > 100 | > 100 | 80.2 | – | – | – | – | – | 32.6 | – | – | – | – | –
COc1ccc(-c2nc(/C=N/Nc3cc(C)nc4ccc(Br)cc34)c(C)o2)cc1 | 3.36 | 3.25 | 3.62 | – | 2.93 µM | – | 1.56 | 3.39 | 3.57 | 1.84 | 1.67 | 1.8 | – | 1.68 | 3.1 | – | 0.415 | 1.86 | 1.94 | 1.44
CNc1ccc(N=Nc2cccc3ncccc23)cc1 | – | > 100 | > 100 | > 100 | > 100 µM | > 100 | > 100 | > 100 | > 100 | – | 49 | 34.3 | 22.3 | 19.7 | > 100 | 39.3 | 37.1 | 31.5 | > 92.8 | 28.7
COc1cc(-c2nn3c(=O)n(-c4ccc(Cl)cc4)c(=O)nc3s2)cc(OC)c1OC | > 100 | > 71.9 | > 100 | > 50 | 40.7 µM and 21.6 µM | > 100 | > 100 | > 69 | > 100 | – | – | > 50 | > 50 | – | – | 33.1 | > 50 | – | – | 14.7
CC12O[Te]34OC1(C)C(C)(O3)C2(C)O4 | 23.2 | 36.8 | 27.4 | 16.4 | 27 µM | 23.9 | 32.6 | 15.2 | 33.6 | – | – | – | – | – | – | – | – | – | – | –
C/C(=N\O)[C@H]1CC[C@@]2(C)[C@@H]3CC[C@H]4C(C)(C)/C(=N/O)CC[C@@]45CC35CC[C@]12C (stereo not given in full) | 5.77 | > 16.7 | 7.03 | 4.1 | 9.67 µM | 14.1 | > 16.7 | 6.81 | 10.1 | 2.45 | 4.3 | 2.84 | 0.759 | – | – | 4.16 | 8.68 | 3.51 | 5.53 | 4.02
